Experimental data reported in US20230371508A1, “COMPOSITIONS AND METHODS FOR KILLING INSECT AND NON-INSECT PESTS” (The United States of America, as represented by the …, priority 2018, published 2023).
Values after ≈ are worked out from the molar mass of the structure shown. “Also recorded” adds a separate entry of the source. Like-named read-outs stand apart in the source and are kept apart here.

Experiments:
[1] = system: S. invicta workers; experiment: Fumigant toxicity in sealed glass flask; assay type: in vivo, Solenopsis invicta; settings: 24 h; for LC50 / mortality at 1.43 µg/mL: Solenopsis invicta; for mortality at 1.43 µg/mL: read-out: mean mortality, dosage 1.43 μg/ml, 24 h
Procedure: A 250-ml glass flask (the whole volume is 280 ml) was used to house worker ants in fumigant toxicity bioassays. Two micro-liter of acetone solution of the tested compound was applied onto a paraffin film, which was used to seal the flask with ants. The treated spot of the paraffin film faced the inside of the flask. The upper part of the flask was coated with Fluon® to prevent ants from contacting the test material. Two experiments were conducted. […] LC50 value was established using 5 dosages. Each dosage was replicated 3 times for each of 3 colonies. Each replicate consisted of 15 to 26 ants. Ants that could not stand by themselves were considered dead. Dead ants were counted after 24 h.

[2] = system: H. halys eggs; experiment: Ovicidal toxicity, direct spray on eggs; assay type: in vivo; settings: eggs sprayed, 10 days
Text: (§1) Ovicidal toxicities of MB and some compounds of formula 1: The aqueous solutions of one of the compounds of formula 1 with designated concentrations with different concentrations of active ingredient (AI) were separately stored in glass spray bottles according to a published procedure (Cuthbertson 2014). The eggs (10 for H. halys and 100 for P. xylostella) were laid on filter papers in Petri dishes. Different aqueous insecticidal solutions were sprayed on the surfaces of different eggs three times (˜0.5 mL) to completely cover the treatment areas. Then the Petri dishes were covered with lids and maintained in a fume hood for 10 days. The Petri dishes were then inspected for presence of nymph/larvae development or numbers of unhatched eggs.

[3] = system: D. suzukii; experiment: Insecticidal activity on larvae and pupae development and adult emergence in pre-infested blueberries (dip); assay type: in vivo, Drosophila suzukii; settings: for Adults / Larvae / Pupae: pre-infested berries soaked 2 min in 1% solution, assessed after 10 days at room temperature, mean of three replicates (standard error); for insecticidal toxicity against D. suzukii (in words): 1% concentration on 4 days pre-infested blueberries, 10 days incubation
Procedure: Impacts of MB and other compounds on D. suzukii control: To investigate the acute toxicity of some compounds of formula 1 against D. suzukii, a published procedure was followed (Cuthbertson, A. G. S., et al., Insects, 5: 488-498 (2014)). First, mixed-sex adults D. suzukii (100) were introduced into a plastic cage (30×30×30 cm) and reared on blueberries (100) for 4 days. After that, the infested blueberries were taken out from the cage. Half of the blueberries (50) were dipped in 100 mL aqueous emulsion of each compound listed in Table 1 at 1% concentration for 2 min as treatment, while the other half of the blueberries (50) were dipped in DI water for 2 min as blank control. Then the corresponding blueberries were separately taken out, placed in two different Petri dishes, and allowed to air dry for 2 h. Second, treatment and blank control blueberries were respectively stored in two plastic cups (32 oz) with closed caps and incubated at room temperature for 10 days. The emergence of adults was then subsequently assessed. The developments of larvae and pupae were further inspected by dissection of the treatment and blank control berries. Each treatment and blank control was repeated three times.

[4] = system: S. invicta workers; settings: for contact toxicity against S. invicta (in words): in vivo; for increase of mean mortality compared with MB / mean mortality: dose 77.9 μg/ant, 24 h
Procedure: Fire ant bioassays were conducted in USDA, ARS Stoneville laboratory at 25° C., 80% R.H. with a 12:12 (L:D) photoperiod. Contact toxicities of MB and some compounds of formula 1 against fire ants: Topical application was used for contact toxicity bioassay. Only large workers were used for a purpose of relatively uniform body weight and ease of handling. For all compounds, acetone was used as a solvent. The solution was applied using a 0.779 μl capillary tube. Two experiments were conducted for assessing contact toxicity. […] In order to investigate the structure-activity relationship, LD50 values were also established for MB and EB. […] For each LD50 value, 5 doses of benzoates were used. Each dose was replicated 3 times. Each replicate consisted of 13 to 18 ants. Treated ants were placed in a 30-ml capped cup and dead ants were counted after 24 h.

[5] = system: L. dispar larvae; experiment: Larvicidal toxicity, treated filter paper in Petri dish; assay type: in vivo; settings: 1st stage larvae, 24 hr
Procedure: Toxicities of MB and some compounds of formula 1 on L. dispar larvae: The bioassays were carried out in plastic Petri dish loaded with filter paper, following a published procedure (Nielsen 2008). 600 μL acetone solution of one derivative with different concentrations was loaded onto the filter paper (90 mm diameter) evenly, and the filter paper was dried for 2 min and then put into the bottom of Petri dish. 10 L. dispar larvae were put onto the Petri dish and covered with a lid. 30 larvae were used for each amount. The mortality was assessed after 24 hr.

[6] = system: H. halys nymphs; experiment: Nymphicidal toxicity, treated filter paper in glass vial; assay type: in vivo; settings: for LC50 (95% CL): 24 hr; for toxicity against H. halys nymphs (in words): in vivo
Procedure: Toxicities of MB, some compounds of formula 1, and commercial pesticides on H. halys nymphs: The bioassays were carried out in glass vials (20 mL), following a published procedure (Nielsen, A. L., et al., J. Econ. Entomol., 101: 1439-1442 (2008)). Filter paper was cut into round shape pieces (2.4 cm diameter). 50 μL acetone solution of one derivative or commercial pesticide with different concentrations was loaded onto the filter paper evenly, and the filter paper was dried for 1 min and then put into the bottom of vial. A small piece of green bean was put on the filter paper in the vial as food source. Different stages of H. halys nymphs were introduced into the vial and capped with a cotton ball. For each stage, 30 nymphs were used for each amount. For the nymphs of the first instar, 10 nymphs were put into 1 vial. For the nymphs of the second and third instar, 5 nymphs were put into 1 vial. For the nymphs of the fourth instar, 3 nymphs were put into 1 vial. For the nymphs of the fifth instar, 2 nymphs were put into 1 vial. The mortality was assessed after 24 hr.

[7] = system: Plutella xylostella eggs; experiment: Ovicidal toxicity, direct spray on eggs; assay type: in vivo; settings: hatchability after 10 days; 0.05% and 0.1% concentrations (FIG. 3)
Text: as §1

| Compound | mortality at 1.43 µg/mL [1] [%] | Adults [3] | Larvae [3] | Pupae [3] | LD50 ([4]; colony 1, 24 h) [μg/ant] | LD50 ([4]; colony 2, 24 h) [μg/ant] | LD50 ([4]; colony 3, 24 h) [μg/ant] | LC50 (95% CL) [5] | LC50 (95% CL) ([6]; 4th stage nymphs) | LC50 (95% CL) ([6]; 3rd stage nymphs) | insecticidal toxicity against D. suzukii (in words) [3] | toxicity against H. halys nymphs (in words) [6] | contact toxicity against S. invicta (in words) [4] | increase of mean mortality compared with MB [4] [times] | mean mortality [4] [%] | other results |
| --- | --- | --- | --- | --- | --- | --- | --- | --- | --- | --- | --- | --- | --- | --- | --- | --- |
| COC(=O)c1cccc(C)c1 [M3MB, methyl 3-methylbenzoate] | ~100 | 0 | 0 | 0 | 70.32 | 107.48 | 67.73 | 0.102 (0.083-0.121) mg/cm^2 | 2.433 (2.000-3.417) μL/vial |  |  |  |  |  |  | LC50 ([1]; colony 1, 24 h): 0.62 µg/mL (≈ 4.13 µM); LC50 ([1]; colony 2, 24 h): 0.7 µg/mL (≈ 4.66 µM); LC50 ([1]; colony 3, 24 h): 0.63 µg/mL (≈ 4.2 µM); LC50 ([1]; read-out: mean LC50 value, mean over colonies, 24 h): 0.65 µg/mL (≈ 4.33 µM); LC50 (95% CL) [2]: 0.016 (0.009-0.024) mg/cm^2 |
| CC(COc1ccc(Oc2ccccc2)cc1)Oc1ccccn1 (stereo not drawn) [PF, pyriproxyfen, reference compound] |  |  |  |  |  |  |  | 0.086 (0.057-0.124) mg/cm^2 |  | 1.798 (1.397-2.797) μL/vial |  |  |  |  |  | LC50 (95% CL) ([5]; listed as pyriproxyfen): 0.086 mg/cm^2; LC50 (95% CL) ([6]; 5th stage nymphs): 2.700 (1.881-4.836) μL/vial |
| CC(C)COC(=O)c1ccccc1 [iBB, iso-butyl benzoate] |  | 24.7(0.9) | 6.0(1.5) | 15.7(1.9) | 80.07 | 96.57 | 55.75 | 0.193 (0.165-0.234) mg/cm^2 |  | 4.890 (2.845-24.779) μL/vial | poor toxicities | deficient toxicities |  |  |  |  |
| CCCCOC(=O)c1ccccc1 [nBB, n-butyl benzoate] | 2.34 | 25.3(1.5) | 4.7(1.2) | 15.0(2.9) | 77.13 | 68.51 | 50.04 | 0.276 (0.223-0.393) mg/cm^2 | 3.370 (2.441-6.922) μL/vial |  |  |  | comparable results; also recorded: potent contact toxicities |  |  | decrease of mean mortality compared with MB ([1]; dosage 1.43 μg/ml): 42 times |
| CCCCCOC(=O)c1ccccc1 [nPeB, n-pentyl benzoate] |  | 36.3(3.9) | 5.3(0.9) | 37.7(6.7) | 35.97 | 41.16 | 28.64 | 0.165 (0.118-0.208) mg/cm^2 |  |  | did not show any insecticidal activities | did not show toxicities | comparable results; also recorded: potent contact toxicities | 13 | 99.26 | ovicidal toxicity against P. xylostella eggs (in words) [7]: comparable toxicity comparing with MB |
| CCCOC(=O)c1ccccc1 [nPrB, n-propyl benzoate] | 79.4 | 3.0(0.6) | 1.7(0.3) | 4.0(0.6) | 109.89 | 109.26 |  | 0.159 (0.135-0.199) mg/cm^2 |  | 2.591 (2.086-3.839) μL/vial | good insecticidal toxicity |  |  | 6 | 45.5 |  |
